Holding throughout (assay type): functional
The test system of test [1] is Mycobacterium tuberculosis. Nature of the test: Minimum inhibitory concentration tested against Mycobacterium tuberculosis resistant clinical isolates.
Test [2] deals with Mycobacterium tuberculosis. The test is described as follows: Minimum inhibitory concentration tested against Mycobacterium tuberculosis resistant clinical isolates; Range 8->16 ug/mL.
In test [3] the test system is Mycobacterium tuberculosis. Nature of the test: Minimum inhibitory concentration tested against Mycobacterium tuberculosis resistant clinical isolates; Range:1-4 ug/ml.
Test [4] deals with Mycobacterium tuberculosis. The test is described as follows: Minimum inhibitory concentration tested against Mycobacterium tuberculosis resistant clinical isolates; Range 8-16 ug/mL.

Values after ≈ are worked out from the molar mass of the structure shown. A value given as a limit tells only on which side of the number the result lay.

As for `O=C1c2ccccc2C(=O)N1CCCN1CCN(CC/N=c2/cc3n(-c4ccc(Cl)cc4)c4ccccc4nc-3cc2Nc2ccc(Cl)cc2)CC1`, the MIC – broadly, the smallest concentration in the dilution series that meets the test's criterion for growth inhibition – in test [1] is above 16 µg/mL.
Still for that read-out and setting: the figure for `O=C1c2cccc3cccc(c23)C(=O)N1CCCCCN1CCN(CC/N=c2/cc3n(-c4ccc(Cl)cc4)c4ccccc4nc-3cc2Nc2ccc(Cl)cc2)CC1` is above 16 µg/mL.
As for `NNC(=O)c1ccncc1` [ISONIAZID], the MIC in test [2] was above 16 µg/mL.
With `O=C1c2cccc3cccc(c23)C(=O)N1CCCCN1CCN(CC/N=c2/cc3n(-c4ccc(Cl)cc4)c4ccccc4nc-3cc2Nc2ccc(Cl)cc2)CC1`, in test [1], the MIC was above 16 µg/mL.
Molecule `O=C1c2ccccc2C(=O)N1CCCCCCN1CCN(CC/N=c2/cc3n(-c4ccc(Cl)cc4)c4ccccc4nc-3cc2Nc2ccc(Cl)cc2)CC1` gave an MIC in test [3] of 4 µg/mL (≈ 5.18 µM).
On to `O=C1c2ccccc2C(=O)N1CCCCN1CCN(CC/N=c2/cc3n(-c4ccc(Cl)cc4)c4ccccc4nc-3cc2Nc2ccc(Cl)cc2)CC1`, for which the MIC in test [1] is above 16 µg/mL.
Consider `O=C1c2ccccc2C(=O)N1CCCCCN1CCN(CC/N=c2/cc3n(-c4ccc(Cl)cc4)c4ccccc4nc-3cc2Nc2ccc(Cl)cc2)CC1`, for which, in test [3], the MIC turned out to be 4 µg/mL (≈ 5.27 µM).
`O=C1c2cccc3cccc(c23)C(=O)N1CCCCCCN1CCN(CC/N=c2/cc3n(-c4ccc(Cl)cc4)c4ccccc4nc-3cc2Nc2ccc(Cl)cc2)CC1` yielded an MIC in test [4] of 16 µg/mL (≈ 19.4 µM).
`O=C1c2cccc3cccc(c23)C(=O)N1CCCN1CCN(CC/N=c2/cc3n(-c4ccc(Cl)cc4)c4ccccc4nc-3cc2Nc2ccc(Cl)cc2)CC1`: in test [1], the MIC was above 16 µg/mL.

Source of the values: ChEMBL document CHEMBL1143511, “Antitubercular agents. Part 1: synthesis of phthalimido- and naphthalimido-linked phenazines as new prototype antitubercular agents” (2005).
